Measurements: patent US20040198673A1, “Composition for epigallocatechin gallate” (priority 2001, published 2004)

Assay: Agway test of powder flowability (glass funnel, 11-mm opening)
Assay type: physicochemical
Details: 100 g, 11-mm funnel opening
Protocol: Granulated EGCG was compared with EGCG powder (the starting material for granulation) for powder flowability using the Agway test. In that test, flowability is determined by placing 100 gram of the granules in a glass funnel with a 11-mm opening, which is sealed temporarily. The measurement is started by releasing the seal. Flowability is determined as the time for the entire powder to flow through the funnel in seconds per 100 g of granule.

Powder flowability (result in words): did not flow
Substance: (−)-epigallocatechin gallate [EGCG powder]
